Values of other authors in patent US20100209419A1, “Method and formulation for treating adverse biological conditions” (priority 2008, published 2010).

Conditions: at 79° F.

CS(C)(=O)=O [MSM, methylsulfonylmethane]
water solubility: 34 % w/v
